Assay [1] has as its target T1, Avi-KRAS G12V (1-169) GppNHp/RAF1 RBD-3×FLAG (52-151) (Homo sapiens, UniProt P01116, G12V).
T1 construct: 50 nM Avi-KRAS G12V (1-169) GppNHp/RAF1 RBD-3×FLAG (52-151)
Put plainly: Disrupting RAS-effector binding HTRF assay, Raf1 RBD-KRAS G12V-GppNHp. The following applies: PPI HTRF, 50 nM Avi-KRAS G12V GppNHp, compound titration 30-0.0045 μM; read-out: Raf1 RBD-KRAS G12V-GppNHp disruption. The method, then:
(§1) A protein:protein interaction (PPI) Homogeneous Time Resolved Fluorescence (HTRF) assay was used to determine the effectiveness of compounds of the present disclosure in disrupting KRAS protein and effector RAF1 binding.
(§2) The HTRF assay used the following reagents and proteins: (i) 50 nM Avi-KRAS G12D (1-169) GppNHp/RAF1 RBD-3×FLAG (52-151); (ii) 50 nM Avi-KRAS G12R (1-169) GppNHp/RAF1 RBD-3×FLAG (52-151); (iii) 50 nM Avi-KRAS G12V (1-169) GppNHp/RAF1 RBD-3×FLAG (52-151), (iv) 50 nM Avi-KRAS WT (1-169) GppNHp/RAF1 RBD-3×FLAG (52-151); and (v) 75 nM Avi-RAF1 RBD-3×FLAG. The assay buffer included: 50 mM Tris pH 7.5, 100 mM NaCl, 5 mM MgCl2, 0.1% BSA, […], 10% DMSO. The bead buffer included: 50 mM Tris pH 7.5, 0.01% o Tween 20. Assay volume of 20 μL was used in a 384 well plate-low volume format. Compound titration: 30-0.0045 μM, 3× dilution series.
(§3) The HTRF assay employed the following protocol:
(§4) Compounds were dispensed in assay plate (384-well, Grenier Bione #784075) using Echo (model 555) with dose response settings: 200 nL final volume, titration from 30 μM as a 10-point dilution series. Protein mix was prepared in assay buffer, and dispensed on plates, 10 μL per well, then incubated for 1 h at room temperature, with 700 rpm shaking. Reagents mix was prepared and dispensed on plates, 10 μL per well, then incubated for 1 h at room temperature, with 700 rpm shaking.
(§5) Plates were analyzed on an Envision plate reader using the following setting: Excitation 320 nm, Bandwidth 75 nM; Emission 615 nm, Bandwidth 85 nM, Gain 100%, Flashes 100, Lag 60 μs. Data were reported as percentage of activity, with DMSO as 100%. Data were plotted and analyzed using Prism 8.
(§6) The biochemical Raf1-KRAS G12D/G12R/G12V/WT-GppNHP disruption assay IC50 of selected compounds described herein are shown in Table 4.
In general terms: TR-FRET usually uses a lanthanide donor and a delayed reading to cut background.

In assay [2] the test system is KRAS G12D protein/effector signaling in GP2d cells. Put plainly: Cell-based pERK HTRF assay in GP2d cell. The following applies: 60 min incubation. The method, then:
A pERK assay (Perkin Elmer) was used to determine the effectiveness of compounds in disrupting KRAS G12D protein/effector signaling in cells.
On Day 1, cells (GP2d) were seeded into 96-well plates at 3×10^4 cells/well in 80 μL complete growth media (DMEM, 10% FBS).
On Day 2, cells were treated with compounds at 0.25% DMSO. The source plate was created with compounds diluted in media at 5-fold the final assay concentration. The compounds were run in a 9-point concentration curve starting at […], with a half-log dilution between concentrations. 20 μL was transferred onto the cell plates (final volume in wells was 100 μL). Plates were harvested after 60 min incubation by aspirating media and adding kit-supplied 1× supplemented lysis buffer to all wells (50 μL per well). Plates were then placed on a plate shaker and incubated at 850 rpm for an additional 30 min.
Antibody mixture solution was prepared by diluting aliquoted d2 and Eu Cryptate antibodies 1:20 in kit supplied detection buffer, and mixing the diluted antibodies solutions (1:1 v:v). 4 μL of this solution was then added to a 384-well detection plate (Perkin Elmer; 6008230).
Samples were homogenized by pipetting up and down and then transferred (16 μL of cell lysates) from the 96-well cell culture plate to two wells of the HTRF 384-well detection plate containing the antibody solution. Plates were centrifuged (524 g for 1 min) and allowed to incubate between 4 and 24 h at room temperature. Maximum signal was reached after 4 h incubation time and remained stable over a period of 24 hours. Therefore, readings could be made between 4 and 24 h of incubation. Plates were centrifuged again (524 g for 1 min), then analyzed on the EnVision plate reader using the following settings: Excitation 320 nm, Bandwidth 75 nm; Emission 615 nm, Bandwidth 85 nm; Gain 100%; Flashes 100; Lag 60 μs.

Assay [3] has as its target T2, Avi-KRAS G12R (1-169) GppNHp/RAF1 RBD-3×FLAG (52-151) (Homo sapiens, UniProt P01116, G12R).
T2 construct: 50 nM Avi-KRAS G12R (1-169) GppNHp/RAF1 RBD-3×FLAG (52-151)
The experiment in a line: Disrupting RAS-effector binding HTRF assay, Raf1 RBD-KRAS G12R-GppNHp. The following applies: PPI HTRF, 50 nM Avi-KRAS G12R GppNHp, compound titration 30-0.0045 μM; read-out: Raf1 RBD-KRAS G12R-GppNHp disruption. The method, then:
as §1, §2, §3, §4, §5, §6

Assay [4] has as its target T3, Avi-KRAS WT (1-169) GppNHp/RAF1 RBD-3×FLAG (52-151) (Homo sapiens, UniProt P01116).
T3 construct: 50 nM Avi-KRAS WT (1-169) GppNHp/RAF1 RBD-3×FLAG (52-151)
The experiment in a line: Disrupting RAS-effector binding HTRF assay, Raf1 RBD-KRAS WT-GppNHp. The conditions noted are these: PPI HTRF, 50 nM Avi-KRAS WT GppNHp, compound titration 30-0.0045 μM; read-out: Raf1 RBD-KRAS WT-GppNHp disruption. The method, then: as §1, §2, §3, §4, §5, §6

In assay [5] the target is T4, Avi-KRAS G12D (1-169) GppNHp/RAF1 RBD-3×FLAG (52-151) (Homo sapiens, UniProt P01116, G12D).
T4 construct: 50 nM Avi-KRAS G12D (1-169) GppNHp/RAF1 RBD-3×FLAG (52-151)
T4 sequence (P01116 1-169 isoform P01116-2 G12D limits assumed): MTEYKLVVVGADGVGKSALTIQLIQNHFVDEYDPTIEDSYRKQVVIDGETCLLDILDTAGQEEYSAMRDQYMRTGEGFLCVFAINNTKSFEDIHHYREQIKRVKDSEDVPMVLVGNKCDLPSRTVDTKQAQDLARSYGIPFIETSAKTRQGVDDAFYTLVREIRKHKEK
The experiment in a line: Disrupting RAS-effector binding HTRF assay, Raf1 RBD-KRAS G12D-GppNHp. The conditions noted are these: PPI HTRF, 50 nM Avi-KRAS G12D GppNHp, compound titration 30-0.0045 μM; read-out: Raf1 RBD-KRAS G12D-GppNHp disruption. The method, then:
as §1, §2, §3, §4, §5, §6

Each structure is given as a SMILES string.

T1 sequence (P01116 1-169 isoform P01116-2 G12V limits assumed): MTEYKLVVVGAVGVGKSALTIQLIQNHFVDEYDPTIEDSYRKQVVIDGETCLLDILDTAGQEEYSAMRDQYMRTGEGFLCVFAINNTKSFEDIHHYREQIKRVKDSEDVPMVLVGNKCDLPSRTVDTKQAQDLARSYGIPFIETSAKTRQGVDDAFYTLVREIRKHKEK
T2 sequence (P01116 1-169 isoform P01116-2 G12R limits assumed): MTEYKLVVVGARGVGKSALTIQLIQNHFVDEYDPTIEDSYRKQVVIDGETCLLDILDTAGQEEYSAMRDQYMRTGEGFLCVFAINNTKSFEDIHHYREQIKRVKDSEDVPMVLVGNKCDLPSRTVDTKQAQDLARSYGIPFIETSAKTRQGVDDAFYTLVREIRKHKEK
T3 sequence (P01116 1-169 isoform P01116-2 limits assumed): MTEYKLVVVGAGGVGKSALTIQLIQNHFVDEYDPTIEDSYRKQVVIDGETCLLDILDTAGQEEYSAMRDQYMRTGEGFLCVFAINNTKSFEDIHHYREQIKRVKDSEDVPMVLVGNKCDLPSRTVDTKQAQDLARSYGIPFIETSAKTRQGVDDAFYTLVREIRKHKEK

As for `CNc1nc(N2CC3CCC(C2)N3)c2cc(C(F)(F)F)c(-c3ccc(F)c4sc(N)c(C#N)c34)c(F)c2n1` [Compound 9], the IC50 in assay [1] is > 10 µM; in assay [2] (1 h), 0.1 to 1 µM; in assay [3] it was > 10 µM; in assay [4], 1 to 10 µM; in assay [5], 1 to 10 µM.
For the molecule `N#Cc1c(N)sc2c(F)ccc(-c3c(C(F)(F)F)cc4c(N5CC6CCC(C5)N6)nc(OCC5(CO)CC5)nc4c3F)c12` [Compound 18], the IC50 in assay [1] was 1 to 10 µM; in assay [2] (1 h) it was ≤ 0.1 µM; in assay [3], 1 to 10 µM; in assay [4], 1 to 10 µM; in assay [5], 0.1 to 1 µM.
As for `CN(C(=O)c1cnn(C)c1)c1nc(N2CC3CCC(C2)N3)c2cc(C(F)(F)F)c(-c3ccc(F)c4sc(N)c(C#N)c34)c(F)c2n1` [Compound 27], the IC50 in assay [1] is > 10 µM; in assay [2] (1 h) it was 0.1 to 1 µM; in assay [3], > 10 µM; in assay [4], 1 to 10 µM; in assay [5], > 10 µM.
As to `N#Cc1c(N)sc2c(F)ccc(-c3c(C(F)(F)F)cc4c(N5CC6CCC(C5)N6)nc(OC[C@@H]5CC(=O)N5)nc4c3F)c12` [Compound 39], the IC50 is > 10 µM in assay [1]; 0.1 to 1 µM in assay [2] (1 h); > 10 µM in assay [3]; 1 to 10 µM in assay [4]; 1 to 10 µM in assay [5].
Take `N#Cc1c(N)sc2c(F)ccc(-c3c(C(F)(F)F)cc4c(N5CC6CCC(C5)N6)nc(OCC5(O)CC5)nc4c3F)c12` [Compound 7]: the IC50 was > 10 µM in assay [1]; 0.1 to 1 µM in assay [2] (1 h); > 10 µM in assay [3]; > 10 µM in assay [4]; 1 to 10 µM in assay [5].
As for `Cc1nc(N2C[C@H]3CC[C@@H](C2)N3)c2cc(C(F)(F)F)c(-c3ccc(F)c4sc(N)c(C#N)c34)c(F)c2n1` [Compound 22, 4-(4-((1R,5S)-3,8-diazabicyclo[3.2.1]octan-3-yl)-8-fluoro-2-methyl-6-(trifluoromethyl)quinazolin-7-yl)-2-amino-7-fluorobenzo[b]thiophene-3-carbonitrile], the IC50 in assay [1] is > 10 µM; in assay [2] (1 h), ≤ 0.1 µM; in assay [3], > 10 µM; in assay [4], 1 to 10 µM; in assay [5] it was 1 to 10 µM.
For the molecule `N#Cc1c(N)sc2c(F)ccc(-c3c(C(F)(F)F)cc4c(N5CC6CCC(C5)N6)nc(OC5CC(O)C5)nc4c3F)c12` (centres unmarked) [Compound 12], the IC50 was > 10 µM in assay [1]; 0.1 to 1 µM in assay [2]; > 10 µM in assay [3]; 1 to 10 µM in assay [4]; 1 to 10 µM in assay [5].
For the molecule `COc1nc(N(C)[C@@H]2CCNC2)c2cc(C(F)(F)F)c(-c3ccc(F)c4sc(N)c(C#N)c34)c(F)c2n1` [Compound 59], the IC50 in assay [1] was > 10 µM; in assay [2] (1 h), 0.1 to 1 µM; in assay [3], > 10 µM; in assay [4] it was > 10 µM; in assay [5], 1 to 10 µM.
`CCCOc1nc(N2CC3CCC(C2)N3)c2cc(C(F)(F)F)c(-c3ccc(F)c4sc(N)c(C#N)c34)c(F)c2n1` [Compound 3]: the IC50 is > 10 µM in assay [1]; 0.1 to 1 µM in assay [2] (1 h); > 10 µM in assay [3]; 1 to 10 µM in assay [4]; 1 to 10 µM in assay [5].
In the case of `C[C@@H]1CN(c2ncnc3c(F)c(-c4ccc(F)c5sc(N)c(C#N)c45)c(C(F)(F)F)cc23)[C@@H](C)CN1` [Compound 64], the IC50 is > 10 µM in assay [1]; ≤ 0.1 µM in assay [2] (1 h); > 10 µM in assay [3]; > 10 µM in assay [4]; 1 to 10 µM in assay [5].
Regarding `N#Cc1c(N)sc2c(F)ccc(-c3c(C(F)(F)F)cc4c(N5CC6CCC(C5)N6)nc(OC5CCC5)nc4c3F)c12` [Compound 17], the IC50 was > 10 µM in assay [1]; 0.1 to 1 µM in assay [2] (1 h); > 10 µM in assay [3]; 1 to 10 µM in assay [4]; 1 to 10 µM in assay [5].
Consider `COc1nc(N2C[C@@H](C)NC[C@@H]2C)c2cc(C(F)(F)F)c(-c3ccc(F)c4sc(N)c(C#N)c34)c(F)c2n1` [Compound 60], for which the IC50 in assay [1] is > 10 µM; in assay [2] (1 h), > 1 µM; in assay [3], > 10 µM; in assay [4] it was > 10 µM; in assay [5] it was > 10 µM.
As to `N#Cc1c(N)sc2c(F)ccc(-c3c(C(F)(F)F)cc4c(N5CC6CCC(C5)N6)nc(N5CC[C@@H](O)C5)nc4c3F)c12` [Compound 6], the IC50 in assay [1] was > 10 µM; in assay [2] (1 h) it was 0.1 to 1 µM; in assay [3], > 10 µM; in assay [4], 1 to 10 µM; in assay [5], 1 to 10 µM.
For the molecule `N#Cc1c(N)sc2c(F)ccc(-c3c(C(F)(F)F)cc4c(N5CC6CCC(C5)N6)nc(N5CCNS(=O)(=O)CC5)nc4c3F)c12` [Compound 26], the IC50 in assay [1] is > 10 µM; in assay [2] (1 h) it was 0.1 to 1 µM; in assay [3], > 10 µM; in assay [4] it was 1 to 10 µM; in assay [5], 1 to 10 µM.
As for `N#Cc1c(N)sc2c(F)ccc(-c3c(C(F)(F)F)cc4c(N5CC6CCC(C5)N6)nc(OCCc5cn[nH]c5)nc4c3F)c12` [Compound 19], the IC50 in assay [1] was > 10 µM; in assay [2] (1 h) it was ≤ 0.1 µM; in assay [3], > 10 µM; in assay [4] it was 1 to 10 µM; in assay [5], 1 to 10 µM.
As to `N#Cc1c(N)sc2c(F)ccc(-c3c(C(F)(F)F)cc4c(N5CC6CCC(C5)N6)nc(N5CCC5)nc4c3F)c12` [Compound 14], the IC50 is > 10 µM in assay [1]; 0.1 to 1 µM in assay [2] (1 h); > 10 µM in assay [3]; 1 to 10 µM in assay [4]; 1 to 10 µM in assay [5].

The values above are taken from patent US20260035376A1, “COMPOSITIONS AND METHODS FOR INHIBITION OF RAS” (TheRas, Inc., priority 2022, published 2026).
